# Results reported in patent US12559529B2, “NPY2 receptor agonists” (Boehringer Ingelheim International GmbH, priority 2019, dated 2026).
# Target: T1, Human Neuropeptide Y2 Receptor (Homo sapiens, UniProt P49146)
# T1 construct: purchased CHEMICON HTS066M
# T1 sequence (P49146 1-381): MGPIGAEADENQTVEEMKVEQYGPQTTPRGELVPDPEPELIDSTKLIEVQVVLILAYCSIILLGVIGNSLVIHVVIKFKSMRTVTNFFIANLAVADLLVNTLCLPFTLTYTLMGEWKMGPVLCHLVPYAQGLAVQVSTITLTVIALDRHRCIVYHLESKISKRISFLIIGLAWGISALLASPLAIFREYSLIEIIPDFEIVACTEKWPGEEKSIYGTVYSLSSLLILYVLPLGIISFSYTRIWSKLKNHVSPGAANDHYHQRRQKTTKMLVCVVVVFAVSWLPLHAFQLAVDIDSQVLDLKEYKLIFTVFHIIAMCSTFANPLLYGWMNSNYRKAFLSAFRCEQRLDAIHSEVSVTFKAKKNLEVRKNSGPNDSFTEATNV
# Experiment: Radioligand binding competition assay (RLB)
# Conditions: Table 3; human 125I-PYY (1-36) 0.02 nM, Y2 receptor membranes; read-out: Ki
# In short: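 Competition binding on human Y2 receptor membranes, 0.5 μg protein/well, in 50 mM HEPES, 5 mM MgCl2, 1 mM CaCl2, pH 7.4, 0.2% ovalbumin; peptides diluted from 1 mM DMSO stocks.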
row,Ki [nM],Structure (SMILES)
1,1,"CC(C)CC(=O)N[C@@H](C)C(=O)N1CCC[C@H]1C(=O)N[C@@H](C)C(=O)N[C@@H](CCCCNC(=O)COCCOCCNC(=O)COCCOCCNC(=O)CC[C@H](NC(=O)CCCCCCCCCCCCCCCCC(=O)O)C(=O)O)C(=O)N1CCC[C@H]1C(=O)N[C@@H](CCC(=O)O)C(=O)N[C@@H](CCC(=O)O)C(=O)N[C@@H](CC(=O)O)C(=O)N[C@@H](C)C(=O)N[C@@H](CO)C(=O)N1CCC[C@H]1C(=O)N[C@@H](C)C(=O)N[C@@H](CCC(=O)O)C(=O)N[C@@H](CC(C)C)C(=O)N[C@@H](CCC(N)=O)C(=O)N[C@@H](CCCNC(=N)N)C(=O)N[C@@H](Cc1ccc(O)cc1)C(=O)N[C@@H](Cc1ccc(O)cc1)C(=O)N[C@H](C(=O)N[C@@H](CO)C(=O)N[C@@H](CC(C)C)C(=O)N[C@@H](CCCNC(=N)N)C(=O)N[C@@H](Cc1c[nH]cn1)C(=O)N[C@@H](Cc1ccc(O)cc1)C(=O)N[C@@H](Cc1ccc(O)cc1)C(=O)N[C@@H](CC(N)=O)C(=O)N[C@@H](Cc1c[nH]c2ccccc12)C(=O)N[C@@H](CC(C)C)C(=O)N[C@H](C(=O)N[C@@H](CCCNC(=N)N)C(=O)N[C@@H](CCC(N)=O)C(=O)N[C@@H](CCCNC(=N)N)C(=O)N[C@@H](Cc1ccc(O)cc1)C(N)=O)[C@@H](C)O)C(C)C [Compound 179, N{alpha-4}-(3-methylbutanoyl)-N{epsilon-7}-[2-(2-{2-[2-(2-{2-[(4S)-4-carboxy-4-(17-carboxyheptadecanamido)butanamido]ethoxy}ethoxy)acetamido]ethoxy}ethoxy)acetamido]-[4A,6A,7K,9E,15A,18Q,22V,28Y,30W,31L]hPYY (4-36)]"
2,0.67,"CC(C)CC(=O)N[C@@H](C)C(=O)N1CCC[C@H]1C(=O)N[C@@H](CCC(=O)O)C(=O)N[C@@H](CCCCNC(=O)COCCOCCNC(=O)COCCOCCNC(=O)CC[C@H](NC(=O)CCCCCCCCCCCCCCCCC(=O)O)C(=O)O)C(=O)N1CCC[C@H]1C(=O)N[C@@H](CCC(=O)O)C(=O)N[C@@H](C)C(=O)N[C@@H](CC(=O)O)C(=O)N[C@@H](C)C(=O)N[C@@H](CO)C(=O)N1CCC[C@H]1C(=O)N[C@@H](CCC(=O)O)C(=O)N[C@@H](CCC(=O)O)C(=O)N[C@@H](CC(C)C)C(=O)N[C@@H](CCC(N)=O)C(=O)N[C@@H](CCCNC(=N)N)C(=O)N[C@@H](Cc1ccc(O)cc1)C(=O)N[C@@H](Cc1ccc(O)cc1)C(=O)N[C@H](C(=O)N[C@@H](C)C(=O)N[C@@H](CC(C)C)C(=O)N[C@@H](CCCNC(=N)N)C(=O)N[C@@H](Cc1c[nH]cn1)C(=O)N[C@@H](Cc1ccc(O)cc1)C(=O)N[C@@H](Cc1ccc(O)cc1)C(=O)N[C@@H](CC(N)=O)C(=O)N[C@@H](Cc1c[nH]c2ccccc12)C(=O)N[C@@H](CC(C)C)C(=O)N[C@H](C(=O)N[C@@H](CCCNC(=N)N)C(=O)N[C@@H](CCC(N)=O)C(=O)N[C@@H](CCCNC(=N)N)C(=O)N[C@@H](Cc1ccc(O)cc1)C(N)=O)[C@@H](C)O)C(C)C [Compound 181, N{alpha-4}-(3-methylbutanoyl)-N{epsilon-7}-[2-(2-{2-[2-(2-{2-[(4S)-4-carboxy-4-(17-carboxyheptadecanamido)butanamido]ethoxy}ethoxy)acetamido]ethoxy}ethoxy)acetamido]-[4A,7K,9E,10A,18Q,22V,23A,28Y,30W,31L]hPYY (4-36)]"
3,3.45,"CC(C)CC(=O)N[C@@H](C)C(=O)N1CCC[C@H]1C(=O)N[C@@H](CCC(=O)O)C(=O)N[C@@H](CCCCNC(=O)COCCOCCNC(=O)COCCOCCNC(=O)CC[C@H](NC(=O)CCCCCCCCCCCCCCCCC(=O)O)C(=O)O)C(=O)N1CCC[C@H]1C(=O)N[C@@H](CCC(=O)O)C(=O)N[C@@H](CCC(=O)O)C(=O)N[C@@H](CC(=O)O)C(=O)NCC(=O)N[C@@H](CO)C(=O)N1CCC[C@H]1C(=O)N[C@@H](CCC(=O)O)C(=O)N[C@@H](CCC(=O)O)C(=O)N[C@@H](CC(C)C)C(=O)N[C@@H](CCC(N)=O)C(=O)N[C@@H](CCCNC(=N)N)C(=O)N[C@@H](Cc1ccc(O)cc1)C(=O)N[C@@H](Cc1ccc(O)cc1)C(=O)N[C@H](C(=O)N[C@@H](CCC(=O)O)C(=O)N[C@@H](CC(C)C)C(=O)N[C@@H](CCCNC(=N)N)C(=O)N[C@@H](Cc1c[nH]cn1)C(=O)N[C@@H](Cc1ccc(O)cc1)C(=O)N[C@@H](Cc1ccc(O)cc1)C(=O)N[C@@H](CC(N)=O)C(=O)N[C@@H](Cc1c[nH]c2ccccc12)C(=O)N[C@@H](CC(C)C)C(=O)N[C@H](C(=O)N[C@@H](CCCNC(=N)N)C(=O)N[C@@H](CCC(N)=O)C(=O)N[C@@H](CCCNC(=N)N)C(=O)N[C@@H](Cc1ccc(O)cc1)C(N)=O)[C@@H](C)O)C(C)C [Compound 182, N{alpha-4}-(3-methylbutanoyl)-N{epsilon-7}-[2-(2-{2-[2-(2-{2-[(4S)-4-carboxy-4-(17-carboxyheptadecanamido)butanamido]ethoxy}ethoxy)acetamido]ethoxy}ethoxy)acetamido]-[4A,7K,9E,12G,18Q,22V,23E,28Y,30W,31L]hPYY (4-36)]"
4,0.7,"CC(C)CC(=O)N[C@@H](C)C(=O)N1CCC[C@H]1C(=O)N[C@@H](CCC(=O)O)C(=O)N[C@@H](CCCCNC(=O)COCCOCCNC(=O)COCCOCCNC(=O)CC[C@H](NC(=O)CCCCCCCCCCCCCCCCC(=O)O)C(=O)O)C(=O)N1CCC[C@H]1C(=O)N1CCC[C@H]1C(=O)N[C@@H](CCC(=O)O)C(=O)N[C@@H](CC(=O)O)C(=O)N[C@@H](C)C(=O)N[C@@H](CO)C(=O)N1CCC[C@H]1C(=O)N[C@@H](CCC(=O)O)C(=O)N[C@@H](CCC(=O)O)C(=O)N[C@@H](CC(C)C)C(=O)N[C@@H](CCC(N)=O)C(=O)N[C@@H](CCCNC(=N)N)C(=O)N[C@@H](Cc1ccc(O)cc1)C(=O)N[C@@H](Cc1ccc(O)cc1)C(=O)N[C@H](C(=O)N[C@@H](CO)C(=O)N[C@@H](CC(C)C)C(=O)N[C@@H](CCCNC(=N)N)C(=O)N[C@@H](Cc1c[nH]cn1)C(=O)N[C@@H](Cc1ccc(O)cc1)C(=O)N[C@@H](Cc1ccc(O)cc1)C(=O)N[C@@H](CC(N)=O)C(=O)N[C@@H](Cc1c[nH]c2ccccc12)C(=O)N[C@@H](CC(C)C)C(=O)N[C@H](C(=O)N[C@@H](CCCNC(=N)N)C(=O)N[C@@H](CCC(N)=O)C(=O)N[C@@H](CCCNC(=N)N)C(=O)N[C@@H](Cc1ccc(O)cc1)C(N)=O)[C@@H](C)O)C(C)C [Compound 183, N{alpha-4}-(3-methylbutanoyl)-N{epsilon-7}-[2-(2-{2-[2-(2-{2-[(4S)-4-carboxy-4-(17-carboxyheptadecanamido)butanamido]ethoxy}ethoxy)acetamido]ethoxy}ethoxy)acetamido]-[4A,7K,9P,18Q,22V,28Y,30W,31L]hPYY (4-36)]"
